Converted amounts (≈) assume the structure as drawn. Read-outs that look alike come from different tables or passages of the source.
How the values were obtained:
Hela S3 cultured cells = assay: Effects upon Hela S3 cultured cells (cell count after 72 hours); assay type: cell-based; conditions: Homo sapiens
Method: Table 3 indicates the effects of typical Compounds (I) against Hela S3 culture cells In this Table, IC50 denotes the concentration of the test compound capable of reducing the number of the cells to 50% of the number of untreated cells.
The experiment was carried out in the following manner:
Cultured cells of Hela S3 were added to a MEM medium containing 10% (V/V) of bovine fetal serum and […] of glutamine to obtain a cell suspension of 3×10^4 cells/ml. The cell suspension was poured into each well (1 ml/well) of a multiplate having 24 wells for culturing at 37° C. in an incubator containing carbon dioxide (5%) and air (95%). After 24 hours, samples were dissolved or suspended in PBS, ethanol or dimethylsulfoxide were added to the medium at different concentrations,followed by culturing at 37° C. for 72 hours in the same incubator.
An aspirator was used to collect the medium from each well. The surface of each medium was washed by added PBS (1 ml) gently, and then PBS was sucked out. PBS containing trypsin (0.05%) and EDTA (0.02%) was poured into each well. After pipetting, the number of the cells in each suspension was counted by the use of a micro-cell counter (commercial product of Toa Iyo Denshi K.K., Japan). By reference to a curve showing the concentration vs. the number of the cells, IC50 (concentration of the sample capable of reducing the number of the cells to 50% on the basis of the number of control untreated cells) was measured.

in vivo [1] = conditions: mouse, ip, ddy mice, single abdominal administration, 14 days observation, Behrens-Korber's method
From the text: (§1) The test compound was abdominally administered once to ddy mice, each group consisting of 5 animals.

Sarcoma 180 solid tumour = assay type: in vivo, ddy mouse; conditions: ddy mice, LD50 abdominal, ED50 single tail vein dose, tumour volume 7 days after implantation
From the text: (§2) In this table, C.I. denotes chemotherapeutic index, calculated as (LD50)/(ED50), wherein LD50 denotes the value of acute toxity, and ED50 denotes the dose of a sample which is capable of reducing the volume of Sarcoma 180 solid tumour to 50% of the corresponding volume of the solid tumour of untreated group.
as §1
(§3) 5×10^6 cells of Sarcoma 180 solid tumour were abdominally implanted into a ddy mouse. After 7 days, the cells were collected from the acsites fluid. The cells were washed once with physiological saline under sterile conditions and suspended in physiological saline to obtain a cell suspension containing 5×10^7 cells/ml, of which 0.1 ml was implanted into a ddy mouse (body weight 20±2 g) under the skin of the right armpit. The test compound was dissolved in physiological saline or the same solution containing Tween 80. 24 hours after implantation of the tumour cells, 0.1-0.2 ml of the solution containing the test compound was administered to the vein at the tail of each animal of the test group consisting of 5 animals. 7 days after the implantation, the major axis (a) and minor axis (b) of the tumour were measured to calculate the volume of the tumour as "a"×"b^2 "/2. The antitumour effect was indicated by T/C which is the ratio of the tumour volume in the test animals to the corresponding volume of the control (untreated) animals.
(§4) T/C ratios and the dose were respectively plotted on the ordinate using an arithmetic scale and on the abscissa using a logarithmic scale, the relationship between the dosage and the T/C ratio being converted to a straight line by the least squares method. From the straight tropic line thus-obtained, the dose corresponding to a T/C=0.5 viz. ED50 was determined.

in vivo [2] = conditions: mouse, ip
From the text: as §2, §3, §4
Sarcoma 180 solid tumour cells (5×10^6) were subcutaneously implanted into the skin under the right armpit of each mouse (body weight 20±2 g) of a group consisting of 5 male mice (ddy strain). 24 hours later, a test compound was intraperitoneally administered to each animal. 4 days later, blood (0.02 ml) was collected from the suborbital plexus vein of each tumour-carrying animal. The collected sample of blood was dispersed in 9.98 ml of Cell-kit Seven solution. One drop of saponin solution was added to the sample to dissolve erythrocytes and then a microcell counter was used to measure the number of leucocytes. On graph paper, the number of leucocytes was plotted on the ordinate using an arithmetic scale, and the dosage was plotted on the abscissa using a logarithmic scale to plot the relationship of the dosage to the number of peripheral leucocytes, from which the value of WBC4000, viz. a value capable of giving 4000 peripheral leucocytes (about half of the corresponding value in normal mice) per mm^3, was obtained.

Row | Structure (SMILES) | IC50 (Hela S3 cultured cells; HeLa S3, 72 h) [ng/mL] | LD50 at 336 h (in vivo [1]) [mg/kg] | C.I. (chemotherapeutic index, LD50/ED50) (Sarcoma 180 solid tumour) | selectivity ratio (in vivo [2]) | IC50 (Hela S3 cultured cells; Hela S3 cells, 72 hours at 37° C., concentration reducing cell number to 50% of untreated, read-out: IC50) [ng/mL]
1 | CCCCON=C1C(=O)C2=C(C(=O)C1C)N1C[C@@H]3N[C@@H]3[C@]1(OC)[C@@H]2COC(N)=O (stereo partly shown) [Example 4] | 6 (≈ 0.0148 µM) | 18.8 | 2.7 | 0.9 | –
2 | CC(C)CON=C1C(=O)C2=C(C(=O)C1C)N1C[C@H]3[C@H](N3C)[C@]1(O)[C@H]2COC(N)=O (stereo partly shown) [Example 6] | 30 (≈ 0.0738 µM) | – | – | – | –
3 | CO[C@@]12[C@H](COC(N)=O)C3=C(C(=O)C(C)C(=NOCC(C)C)C3=O)N1C[C@@H]1N[C@@H]12 (stereo partly drawn) [Example 2, [1aS-(1aα, 8β, 8aα, 8bα)]-8-{[(aminocarbonyl)oxy]methyl}-6-[(isobutyloxy)imino]-8a-methoxy-5-methyl1,1a,2,5,6,8,8a,8b-octahydro-azirino[2',3':3,4]pyrrolo[1,2-a]indole-4,7-dione] | 3 (≈ 0.00738 µM) | 18.8 | 3.6 | 1.9 | –
4 | CO[C@@]12[C@H](COC(N)=O)C3=C(C(=O)C(C)C(=NOCC(C)C)C3=O)N1C[C@H]1[C@@H]2N1C (stereo partly drawn) [Example 5, [1aS-(1aα, 8β, 8aα, 8bα)]-8-{[(aminocarbonyl)oxy]methyl}-1,5-dimethyl-6-[(isobutyloxy)imino]8a-methoxy-1,1a,2,5,6,8,8a,8b-octahydro-azirino [2',3': 3,4]pyrrolo[1,2-a]indole-4,7-dione] | – | 60 | 3.4 | 1.4 | –
5 | CO[C@@]12[C@H](CO)C3=C(C(=O)C(C)C(=NOCC(C)C)C3=O)N1C[C@@H]1N[C@@H]12 (stereo partly drawn) [Example 7, [1aS-(1aα, 8β, 8aα, 8bα)]-8-hydroxymethyl-6-[(isobutyloxy)imino] -8a-methoxy-5-methyl-1,1a, 2,5,6,8,8a,8b-octahydro-azirino [2',3':3,4]pyrrolo[1,2-a] indole-4,7-dione] | 3 (≈ 0.00826 µM) | – | – | – | –
6 | CCC(C)ON=C1C(=O)C2=C(C(=O)C1C)N1C[C@@H]3N[C@@H]3[C@]1(OC)[C@@H]2COC(N)=O (stereo partly shown) [Example 3] | 1 (≈ 0.00246 µM) | 18.8 | 3.1 | 2.4 | –
7 | CON=C1C(=O)C2=C(C(=O)C1C)N1C[C@@H]3N[C@@H]3[C@]1(OC)[C@@H]2COC(N)=O (stereo partly drawn) [Example 1, [1aS-(1aα,8β,8aα,8bα)]-8-{[(aminocarbonyl)oxy]methyl}-8a-methoxy-6-[(methoxy)imino]-5-methyl-1,1a,2,5,6,8,8a,8b-octahydro-azirino-[2',3':3,4]pyrrolo[1,2-a]indole-4,7-dione] | 12 (≈ 0.0329 µM) | 37.5 | 0.7 | 0.5 | –
8 | CO[C@@]12[C@H](COC(N)=O)C3=C(C(=O)C(C)=C(N)C3=O)N1C[C@@H]1N[C@@H]12 [Mitomycin C, reference compound] | – | – | – | – | 4 (≈ 0.012 µM)

Reference: patent US4791130A, “Mitomycin derivatives as antileukemia agents” (priority 1986, dated 1988)
